In patent US12479847B2 (DANA-FARBER CANCER INSTITUTE, INC., priority 2019, dated 2025):
Like-named read-outs stand apart in the source and are kept apart here.

How the values were obtained:
Test in all cases: KINOMEscan (ScanMAX) kinase profiling
Assay type in all cases: binding
panel of 468 kinases [1] = target: T1, panel of 468 kinases (Homo sapiens, UniProt P29597); conditions: 1 μM, read-out: % control
T1 construct: purchased KINOMEscan (ScanMAX) service

panel of 468 kinases [2] = target: T2, panel of 468 kinases (Homo sapiens, UniProt P29323); conditions: EPHB2; 1 μM; read-out: % control
T2 construct: purchased KINOMEscan (ScanMAX) service
T2 sequence (P29323 19-1055): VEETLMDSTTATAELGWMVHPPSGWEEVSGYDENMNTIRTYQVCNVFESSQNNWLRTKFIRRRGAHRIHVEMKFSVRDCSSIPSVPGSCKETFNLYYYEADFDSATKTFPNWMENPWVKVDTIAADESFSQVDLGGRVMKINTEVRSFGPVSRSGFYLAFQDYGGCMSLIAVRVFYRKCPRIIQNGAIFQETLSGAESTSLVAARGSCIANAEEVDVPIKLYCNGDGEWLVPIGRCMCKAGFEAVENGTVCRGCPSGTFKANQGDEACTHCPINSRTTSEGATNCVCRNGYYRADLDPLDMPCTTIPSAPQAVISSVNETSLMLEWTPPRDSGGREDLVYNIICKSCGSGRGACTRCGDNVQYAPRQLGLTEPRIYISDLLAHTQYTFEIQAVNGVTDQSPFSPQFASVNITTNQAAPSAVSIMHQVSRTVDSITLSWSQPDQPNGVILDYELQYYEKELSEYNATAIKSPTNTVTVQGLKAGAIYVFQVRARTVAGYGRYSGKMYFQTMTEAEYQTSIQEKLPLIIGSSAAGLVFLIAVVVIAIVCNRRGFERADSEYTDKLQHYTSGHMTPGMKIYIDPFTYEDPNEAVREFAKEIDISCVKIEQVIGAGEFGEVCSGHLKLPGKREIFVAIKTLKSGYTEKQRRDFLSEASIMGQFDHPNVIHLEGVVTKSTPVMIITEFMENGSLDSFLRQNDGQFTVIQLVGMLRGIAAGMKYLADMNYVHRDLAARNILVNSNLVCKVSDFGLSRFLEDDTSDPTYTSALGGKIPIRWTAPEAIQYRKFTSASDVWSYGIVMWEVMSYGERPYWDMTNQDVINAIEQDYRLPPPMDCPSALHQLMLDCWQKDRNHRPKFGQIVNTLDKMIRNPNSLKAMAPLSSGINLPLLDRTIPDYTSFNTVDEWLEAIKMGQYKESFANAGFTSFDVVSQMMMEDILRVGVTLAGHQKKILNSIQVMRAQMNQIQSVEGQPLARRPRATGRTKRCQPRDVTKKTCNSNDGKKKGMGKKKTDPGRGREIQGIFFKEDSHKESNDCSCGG

panel of 468 kinases [3] = target: T3, panel of 468 kinases (Homo sapiens, UniProt P04626); conditions: ERBB2; 1 μM; read-out: % control
T3 construct: purchased KINOMEscan (ScanMAX) service

panel of 468 kinases [4] = target: T4, panel of 468 kinases (Homo sapiens, UniProt Q8TD08); conditions: ERK8; 1 μM; read-out: % control
T4 construct: purchased KINOMEscan (ScanMAX) service
T4 sequence (Q8TD08 1-544): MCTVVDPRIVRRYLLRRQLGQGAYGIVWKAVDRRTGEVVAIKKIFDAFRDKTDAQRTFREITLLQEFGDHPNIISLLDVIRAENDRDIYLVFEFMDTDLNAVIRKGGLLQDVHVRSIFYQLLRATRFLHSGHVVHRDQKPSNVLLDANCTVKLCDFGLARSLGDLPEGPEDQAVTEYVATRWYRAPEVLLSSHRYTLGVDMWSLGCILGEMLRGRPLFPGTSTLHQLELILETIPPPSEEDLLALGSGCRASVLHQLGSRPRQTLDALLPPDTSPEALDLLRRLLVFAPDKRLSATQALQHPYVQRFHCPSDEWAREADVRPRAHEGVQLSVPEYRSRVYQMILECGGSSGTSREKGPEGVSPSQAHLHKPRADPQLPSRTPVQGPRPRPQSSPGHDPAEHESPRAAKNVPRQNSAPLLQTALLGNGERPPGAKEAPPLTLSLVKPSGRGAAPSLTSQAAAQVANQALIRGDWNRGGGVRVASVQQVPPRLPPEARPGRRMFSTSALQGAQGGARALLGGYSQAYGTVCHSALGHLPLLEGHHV

panel of 468 kinases [5] = target: T5, panel of 468 kinases (Plasmodium falciparum, UniProt P62344); conditions: PFCDPK1(P.falciparum); 1 μM; read-out: % control
T5 construct: purchased KINOMEscan (ScanMAX) service

panel of 468 kinases [6] = target: T6, panel of 468 kinases (Homo sapiens, UniProt P42336, I800L); conditions: PIK3CA(I800L); 1 μM; read-out: % control
T6 construct: purchased KINOMEscan (ScanMAX) service

panel of 468 kinases [7] = target: T7, panel of 468 kinases (Homo sapiens, UniProt Q9Y6R4); conditions: MAP3K4; 1 μM; read-out: % control
T7 construct: purchased KINOMEscan (ScanMAX) service

panel of 468 kinases [8] = conditions: 1 μM

T3 sequence (P04626 23-1255): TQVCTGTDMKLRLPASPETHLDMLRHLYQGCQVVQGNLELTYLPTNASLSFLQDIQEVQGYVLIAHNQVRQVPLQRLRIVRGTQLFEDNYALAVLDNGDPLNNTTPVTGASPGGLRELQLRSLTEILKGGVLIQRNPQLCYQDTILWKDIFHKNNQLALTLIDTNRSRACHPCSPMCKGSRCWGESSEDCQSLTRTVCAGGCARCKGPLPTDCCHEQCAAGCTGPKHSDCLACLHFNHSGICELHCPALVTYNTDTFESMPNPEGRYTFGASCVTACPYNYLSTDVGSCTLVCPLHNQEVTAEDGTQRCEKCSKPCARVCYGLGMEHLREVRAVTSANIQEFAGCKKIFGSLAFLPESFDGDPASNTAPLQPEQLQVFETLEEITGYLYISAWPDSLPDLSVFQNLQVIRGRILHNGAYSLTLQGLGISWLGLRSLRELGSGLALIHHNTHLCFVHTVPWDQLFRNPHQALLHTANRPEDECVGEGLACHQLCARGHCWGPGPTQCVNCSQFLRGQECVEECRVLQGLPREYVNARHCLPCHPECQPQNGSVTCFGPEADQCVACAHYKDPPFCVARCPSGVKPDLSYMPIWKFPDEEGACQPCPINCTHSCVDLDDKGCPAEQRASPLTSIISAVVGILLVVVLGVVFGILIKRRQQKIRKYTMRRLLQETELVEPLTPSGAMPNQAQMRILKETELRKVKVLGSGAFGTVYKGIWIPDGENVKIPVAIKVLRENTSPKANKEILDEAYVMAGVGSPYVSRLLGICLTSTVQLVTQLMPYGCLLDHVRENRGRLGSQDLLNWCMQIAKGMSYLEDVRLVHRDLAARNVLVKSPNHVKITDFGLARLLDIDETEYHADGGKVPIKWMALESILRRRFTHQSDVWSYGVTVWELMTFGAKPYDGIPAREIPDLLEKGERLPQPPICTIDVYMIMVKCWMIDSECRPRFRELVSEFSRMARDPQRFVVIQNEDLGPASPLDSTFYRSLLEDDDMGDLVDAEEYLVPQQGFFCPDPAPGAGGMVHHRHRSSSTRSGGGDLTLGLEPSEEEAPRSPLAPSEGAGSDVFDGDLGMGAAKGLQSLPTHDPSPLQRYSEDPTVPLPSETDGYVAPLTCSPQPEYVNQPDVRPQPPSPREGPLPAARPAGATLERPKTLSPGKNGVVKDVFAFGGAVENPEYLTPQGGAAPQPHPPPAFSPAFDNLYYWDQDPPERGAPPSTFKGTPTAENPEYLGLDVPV
T1 sequence (P29597 whole entry): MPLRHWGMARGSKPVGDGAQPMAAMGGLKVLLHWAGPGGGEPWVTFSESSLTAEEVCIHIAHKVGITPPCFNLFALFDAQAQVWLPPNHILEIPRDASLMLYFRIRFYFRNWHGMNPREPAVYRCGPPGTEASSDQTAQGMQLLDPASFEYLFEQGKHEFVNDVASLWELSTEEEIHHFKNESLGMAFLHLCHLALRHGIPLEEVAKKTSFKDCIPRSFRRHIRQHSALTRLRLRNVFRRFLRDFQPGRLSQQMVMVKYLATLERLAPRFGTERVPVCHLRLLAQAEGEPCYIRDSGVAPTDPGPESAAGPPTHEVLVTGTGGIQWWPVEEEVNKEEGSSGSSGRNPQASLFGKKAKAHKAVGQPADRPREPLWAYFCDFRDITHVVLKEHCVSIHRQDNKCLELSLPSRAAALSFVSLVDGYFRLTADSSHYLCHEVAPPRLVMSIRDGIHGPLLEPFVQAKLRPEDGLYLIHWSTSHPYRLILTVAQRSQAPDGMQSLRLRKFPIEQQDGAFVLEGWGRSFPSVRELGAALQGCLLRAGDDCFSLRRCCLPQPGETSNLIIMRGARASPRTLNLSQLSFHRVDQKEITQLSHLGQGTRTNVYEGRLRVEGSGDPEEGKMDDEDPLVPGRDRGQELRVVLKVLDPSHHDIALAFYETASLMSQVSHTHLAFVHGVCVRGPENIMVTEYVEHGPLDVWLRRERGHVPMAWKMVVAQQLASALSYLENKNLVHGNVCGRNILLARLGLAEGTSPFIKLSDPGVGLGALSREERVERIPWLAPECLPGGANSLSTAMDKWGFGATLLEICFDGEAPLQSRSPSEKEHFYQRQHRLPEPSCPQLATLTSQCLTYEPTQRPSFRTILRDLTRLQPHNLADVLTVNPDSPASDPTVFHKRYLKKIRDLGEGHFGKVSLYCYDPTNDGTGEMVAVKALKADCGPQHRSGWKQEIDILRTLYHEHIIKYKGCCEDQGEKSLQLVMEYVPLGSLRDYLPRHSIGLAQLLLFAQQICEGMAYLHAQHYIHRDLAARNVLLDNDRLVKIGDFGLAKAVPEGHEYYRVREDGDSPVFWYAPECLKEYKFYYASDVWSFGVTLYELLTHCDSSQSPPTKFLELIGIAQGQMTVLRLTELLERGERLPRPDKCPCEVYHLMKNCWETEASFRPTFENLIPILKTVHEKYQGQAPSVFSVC
T6 sequence (P42336 whole entry I800L): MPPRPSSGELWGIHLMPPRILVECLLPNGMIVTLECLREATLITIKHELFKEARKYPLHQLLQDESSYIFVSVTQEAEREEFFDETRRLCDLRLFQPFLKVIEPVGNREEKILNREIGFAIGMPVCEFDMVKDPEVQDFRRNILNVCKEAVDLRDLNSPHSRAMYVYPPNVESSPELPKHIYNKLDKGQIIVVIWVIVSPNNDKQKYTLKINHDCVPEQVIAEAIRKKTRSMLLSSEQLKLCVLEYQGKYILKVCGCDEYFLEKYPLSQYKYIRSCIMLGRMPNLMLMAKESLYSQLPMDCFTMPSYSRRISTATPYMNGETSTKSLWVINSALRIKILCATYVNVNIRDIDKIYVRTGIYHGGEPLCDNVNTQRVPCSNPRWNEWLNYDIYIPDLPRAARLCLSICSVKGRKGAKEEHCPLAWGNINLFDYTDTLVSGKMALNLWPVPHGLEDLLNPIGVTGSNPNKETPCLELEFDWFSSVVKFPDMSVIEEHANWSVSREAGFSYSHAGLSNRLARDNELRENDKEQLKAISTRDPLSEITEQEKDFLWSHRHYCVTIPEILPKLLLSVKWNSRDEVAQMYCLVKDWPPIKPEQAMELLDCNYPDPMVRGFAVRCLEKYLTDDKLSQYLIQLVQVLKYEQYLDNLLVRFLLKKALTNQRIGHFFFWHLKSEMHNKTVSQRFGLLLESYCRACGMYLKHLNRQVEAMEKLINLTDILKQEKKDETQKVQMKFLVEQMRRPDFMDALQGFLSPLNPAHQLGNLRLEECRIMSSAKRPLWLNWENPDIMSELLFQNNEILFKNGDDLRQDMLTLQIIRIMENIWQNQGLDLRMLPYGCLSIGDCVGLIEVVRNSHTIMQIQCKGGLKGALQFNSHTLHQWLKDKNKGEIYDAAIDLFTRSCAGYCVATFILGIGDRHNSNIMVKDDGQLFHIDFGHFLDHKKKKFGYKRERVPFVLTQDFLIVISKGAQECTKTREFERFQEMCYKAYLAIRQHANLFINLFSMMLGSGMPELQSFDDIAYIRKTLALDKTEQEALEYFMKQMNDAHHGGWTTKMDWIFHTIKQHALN
T7 sequence (Q9Y6R4 whole entry): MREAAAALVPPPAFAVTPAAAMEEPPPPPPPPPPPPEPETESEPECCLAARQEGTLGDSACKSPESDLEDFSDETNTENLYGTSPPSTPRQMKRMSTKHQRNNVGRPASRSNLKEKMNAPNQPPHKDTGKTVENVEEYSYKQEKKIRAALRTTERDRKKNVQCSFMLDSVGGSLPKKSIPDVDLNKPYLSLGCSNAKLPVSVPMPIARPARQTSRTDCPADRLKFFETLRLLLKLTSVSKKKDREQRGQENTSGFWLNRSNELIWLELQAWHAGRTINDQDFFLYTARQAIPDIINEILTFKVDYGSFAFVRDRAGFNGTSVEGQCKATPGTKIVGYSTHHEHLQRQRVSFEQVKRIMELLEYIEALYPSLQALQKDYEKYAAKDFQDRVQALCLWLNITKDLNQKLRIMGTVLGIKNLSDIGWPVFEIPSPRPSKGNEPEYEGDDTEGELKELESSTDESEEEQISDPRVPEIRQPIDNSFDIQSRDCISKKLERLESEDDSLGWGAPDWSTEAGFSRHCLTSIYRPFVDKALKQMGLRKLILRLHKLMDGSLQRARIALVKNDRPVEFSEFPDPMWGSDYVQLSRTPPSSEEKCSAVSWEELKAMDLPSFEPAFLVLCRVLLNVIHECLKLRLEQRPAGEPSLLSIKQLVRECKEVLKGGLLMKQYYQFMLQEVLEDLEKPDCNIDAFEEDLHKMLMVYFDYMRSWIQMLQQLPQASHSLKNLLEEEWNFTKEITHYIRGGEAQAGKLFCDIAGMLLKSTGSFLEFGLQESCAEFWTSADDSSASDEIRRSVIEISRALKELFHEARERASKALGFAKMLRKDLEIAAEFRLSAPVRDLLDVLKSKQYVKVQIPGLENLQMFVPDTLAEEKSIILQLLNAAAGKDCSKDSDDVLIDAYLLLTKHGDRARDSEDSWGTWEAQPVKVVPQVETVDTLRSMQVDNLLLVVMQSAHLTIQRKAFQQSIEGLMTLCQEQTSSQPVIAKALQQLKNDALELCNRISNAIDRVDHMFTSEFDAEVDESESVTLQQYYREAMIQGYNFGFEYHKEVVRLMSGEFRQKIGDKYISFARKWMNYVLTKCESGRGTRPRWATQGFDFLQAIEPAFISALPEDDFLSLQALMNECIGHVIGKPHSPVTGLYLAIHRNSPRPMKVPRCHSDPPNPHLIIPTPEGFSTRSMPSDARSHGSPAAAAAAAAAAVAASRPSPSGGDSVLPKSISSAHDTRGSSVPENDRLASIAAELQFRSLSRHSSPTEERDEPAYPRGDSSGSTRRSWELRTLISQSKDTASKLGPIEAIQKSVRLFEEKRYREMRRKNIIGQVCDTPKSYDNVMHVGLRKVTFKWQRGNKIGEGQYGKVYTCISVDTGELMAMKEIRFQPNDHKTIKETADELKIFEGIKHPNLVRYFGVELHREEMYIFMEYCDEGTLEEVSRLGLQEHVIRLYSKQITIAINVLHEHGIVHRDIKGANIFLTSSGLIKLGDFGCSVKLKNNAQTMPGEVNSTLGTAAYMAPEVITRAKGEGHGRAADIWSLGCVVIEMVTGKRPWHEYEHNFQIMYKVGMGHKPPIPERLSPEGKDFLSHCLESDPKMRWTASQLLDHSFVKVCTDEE

| Structure (SMILES) | remaining binding at 1 µM (panel of 468 kinases [1]; TYK2(JH1domain-catalytic)) [%] | remaining binding at 1 µM (panel of 468 kinases [1]; TYK2(JH2domain-pseudokinase)) [%] | remaining binding at 1 µM (panel of 468 kinases [2]) [%] | remaining binding at 1 µM (panel of 468 kinases [3]) [%] | remaining binding at 1 µM (panel of 468 kinases [4]) [%] | remaining binding at 1 µM (panel of 468 kinases [5]) [%] | remaining binding at 1 µM (panel of 468 kinases [6]) [%] | remaining binding at 1 µM (panel of 468 kinases [7]) [%] | % control (panel of 468 kinases [8]; EGFR(L747-E749del, A750P)) [%] | % control (panel of 468 kinases [8]; EGFR(L747-S752del, P753S)) [%] | % control (panel of 468 kinases [8]; EGFR(L747-T751del,Sins)) [%] | % control (panel of 468 kinases [8]; FLT3(ITD)) [%] | % control (panel of 468 kinases [8]; FLT3(ITD,D835V)) [%] | % control (panel of 468 kinases [8]; FLT3(ITD,F691L)) [%] |
| --- | --- | --- | --- | --- | --- | --- | --- | --- | --- | --- | --- | --- | --- | --- |
| CNc1nc(Nc2ccc(S(=O)(=O)N3CCC(N4CCOCC4)CC3)cc2OC)nc2[nH]cc(Cl)c12 [Compound 12, 5-chloro-N2-(2-methoxy-4-((4-morpholinopiperidin-1-yl)sulfonyl)phenyl)-N4-methyl-7H-pyrrolo[2,3-d]pyrimidine-2,4-diamine] | 90 | 88 | 100 | 80 | 100 | 97 | 74 | 100 | 100 | 95 | 100 | 100 | 61 | 66 |
| CNc1nc(Nc2ccc(C(=O)N3CCC(N4CCOCC4)CC3)c3c2OCO3)nc2[nH]cc(Cl)c12 [Compound 75, (7-((5-chloro-4-(methylamino)-7H-pyrrolo[2,3-d]pyrimidin-2-yl)amino)benzo[d][1,3]dioxol-4-yl)(4-morpholinopiperidin-1-yl)methanone] | 46 | 100 | 100 | 85 | 100 | 99 | 87 | 100 | 100 | 87 | 100 | 33 | 2 | 2.8 |
| CNc1nc(Nc2ccc(P3(=O)CCN(C4CCOCC4)CC3)cc2OC)nc2[nH]cc(Cl)c12 [Compound 77, 4-(4-((5-chloro-4-(methylamino)-7H-pyrrolo[2,3-d]pyrimidin-2-yl)amino)-3-methoxyphenyl)-1-(tetrahydro-2H-pyran-4-yl)-1,4-azaphosphinane 4-oxide] | 66 | 82 | 100 | 99 | 100 | 90 | 69 | 100 | 92 | 99 | 100 | 81 | 19 | 40 |
